The subject of test [1] is HSP17.6C-C1 of Arabidopsis thaliana. In words: HSP expression test (HSP17.6C-C1 upstream region linked to GUS, 4-MU production). It counts as in vivo. Details: key: 4-MU per plant divided by 4-MU of 50 μM geldanamycin positive control. The conditions noted are these: soaked 6 hours at 22° C., positive control 50 μM geldanamycin. As to the method: First, a construct linked to β-glucuronidase (GUS) gene was introduced to 1 kb upstream of HSP17.6C-C1 of Arabidopsis thaliana (the family Brassicaceae) to prepare a mutant. Each naphthoquinone compound (shown in Table 1) dissolved in DMSO was diluted to 1 μM, 10 μM, 100 μM, or 1000 μM (final concentration) with deionized water to prepare a test solution of each example (final concentration of DMSO: 1.0% by volume). A 50 μM geldanamycin solution was similarly prepared as a positive control.
Next, two individuals of 7-day-old Arabidopsis thaliana mutants grown in a ⅕ MS medium were soaked in 300 μL of the test solution of each example or the positive control at 22° C. for 6 hours. The Arabidopsis thaliana was washed with deionized water, then soaked in 200 μL of a 4-methylumbelliferyl-β-D-glucuronide hydrate solution containing a surfactant, and incubated at 22° C. for 16 hours in the dark. The fluorescence intensity of the supernatant was measured, and the amount of 4-methylumbelliferone (4-MU) production per plant was calculated. The calculated value of 4-MU was divided by the value of 4-MU of the positive control to calculate a ratio vs. positive control. A higher numerical value means that HSP was expressed at a larger level.
Each shikonin compound or alkannin compound (shown in Table 2) dissolved in DMSO was diluted to 1 μM, 10 μM, 100 μM, or 1000 μM (final concentration) with deionized water to prepare a test solution of each example (final concentration of DMSO: 1.0% by volume). A 50 μM geldanamycin solution was similarly prepared as a positive control. The other test procedures were performed in the same way as in Test Example 1. The calculated value of 4-MU was divided by the value of 4-MU of the positive control to calculate a ratio vs. positive control. […]

The next test has as its system Arabidopsis thaliana. In words: Heat tolerance induction test based on chlorophyll concentration. It counts as in vivo. The settings on record: 50 μM in medium; heat-treated at 44° C. for 1 hour; 3 days culture after. As to the method:
A ⅕ MS medium was prepared in a 6-well plate, and filter paper was placed thereon. 12 individuals of wild-type Arabidopsis thaliana were seeded per well and grown at 22° C. for 7 days in a plant incubator under 16-hour light and 8-hour dark conditions. Next, the naphthoquinone compound of each example (shown in Table 3) dissolved in DMSO was added to a ⅕ MS medium, and each medium (final concentration: 50 μM) was prepared in a 6-well plate (final concentration of DMSO: 1.0% by volume). A medium containing 1.0% by volume of DMSO was used as a control.
The Arabidopsis thaliana grown for 7 days in the 6-well plate was transplanted, together with the filter paper, to the medium containing the compound and cultured for 1 day in a plant incubator. The plate was placed in a plastic bag and heat-treated at 44° C. for 1 hour in a water bath. After the heat treatment, culture was performed for 3 days in a plant incubator. The leaves of 4 Arabidopsis thaliana individuals were cut out, and chlorophyll was extracted with 300 μL of ethanol. The absorbance of each extract was measured at 649 nm and 665 nm, and the chlorophyll concentration (mg/L) was calculated. A higher chlorophyll concentration means that heat tolerance is better.
The shikonin compound of each example (shown in Table 4) dissolved in DMSO was added to a ⅕ MS medium, and each medium (final concentration: 50 μM) was prepared in a 6-well plate (final concentration of DMSO: 1.0% by volume). A medium containing 1% by volume of DMSO was used as a control. The other test procedures were performed in the same way as in Test Example 3.
The Lithospermi radix extract used was Shikonix Liquid (BG) (trade name, manufactured by Ichimaru Pharcos Co., Ltd.) containing a Lithospermum erythrorhizon root extract. The Shikonix Liquid contained, as major components, shikonin compounds such as acetylshikonin, β-hydroxyisovalerylshikonin, and isobutyrylshikonin. The Shikonix Liquid also contained, as additional minor components, α-methyl-n-butylshikonin, β,β-dimethylacrylshikonin, isovalerylshikonin, and shikonin.
The Shikonix Liquid (BG) was added at a dilution ratio of 150-fold to a ⅕ MS medium. The same amount of water was added as a control. ThermoZyme (manufactured by Fujimikogyo Co., Ltd.) was added at a dilution ratio of 150-fold as a positive control (Reference Example). The other test procedures were performed in the same way as in Test Example 3.

Test [2] concerns maize. In words: Drought tolerance improvement test of maize. In kind it is in vivo. The conditions noted are these: 10 μM, 2 mL/cell; 19 days without water, counted 5 days after water addition.
Method: Four parts each involving 9 cells (3×3) were cut out of a 72-cell tray. Seedling soil was placed therein, and water was added. 4 seeds of maize were seeded per cell. The temperature was set to 20° C. using a plant growth chamber, followed by cultivation under 16-hour light and 8-hour dark conditions. After budding, each naphthoquinone compound dissolved in DMSO was diluted to 10 μM (final concentration) with deionized water to prepare a test solution of each example (final concentration of DMSO: 1.0% by volume). Each test solution was sprayed to leaf surface in one of the cell trays. The volume of the test solution sprayed was set to 2 mL/cell. The same volume of water was sprayed to the other cell tray and used as a control. After the spraying, cultivation was continued without the addition of water. 19 days after the spraying, water was added to the soil. 5 days after the water addition, the number of maize survivors was counted and divided by the initial number of growing plants to calculate a survival rate (%).
In test [3] the test system is maize. Nature of the test: Salt tolerance improvement test of maize. In kind it is in vivo. The settings on record: 10 μM, 2 mL/cell; 1.0% NaCl five times every two days; fresh weight. As to the method: (§1) Two parts each involving 9 cells (3×3) were cut out of a 72-cell tray. Seedling soil was placed therein, and water was added. 4 seeds of maize were seeded per cell. The temperature was set to 20° C. using a plant growth chamber, followed by cultivation under 16-hour light and 8-hour dark conditions. After budding, Shikonix Liquid (BG) (manufactured by Ichimaru Pharcos Co., Ltd.) was diluted 500-fold and sprayed as the Lithospermi radix extract to leaf surface in one of the cell trays. The volume of the Shikonix Liquid sprayed was set to 2 mL/cell. The same volume of water was sprayed to the other cell tray and used as a control. Two days later, a 1.0% NaCl solution was prepared and absorbed from the underside of each cell tray. The NaCl solution treatment was performed five times every two days. The above-ground parts were cut off, and their fresh weights were measured. An average value (g/plant) was calculated.
as §1, with “Four parts” for “Two parts”, “budding, each naphthoquinone compound dissolved in DMSO” for “budding, Shikonix Liquid (BG) (manufactured by Ichimaru Pharcos Co., Ltd.)”, “diluted to 10 μM (final concentration) with deionized water to prepare a test solution of each example (final concentration of DMSO: 1.0% by volume). Each test solution was” for “diluted 500-fold and”, “sprayed” for “sprayed as the Lithospermi radix extract”, “the test solution” for “the Shikonix Liquid”

For another test, the system named is sprouted alfalfa. Nature of the test: Spindly growth suppression test of seedling. The conditions noted are these: 50 μL sprayed per individual, 10 days at 25° C. It counts as in vivo, Medicago sativa. As to the method: A spindly growth suppression test was conducted using sprouted alfalfa as a seedling and naphthoquinone compounds as quinone compounds. First, just-sprouted alfalfa (Medicago sativa of the family Leguminosae) was transplanted to a plastic cup containing vermiculite. Each naphthoquinone compound (shown in Table 5) dissolved in DMSO was diluted to 100 μM or 1000 μM (final concentration) with deionized water to prepare a test solution of each example (final concentration of DMSO: 1.0% by volume). An aqueous solution containing 1.0% by volume of DMSO was used as a test solution of a control. 50 μL of the test solution was sprayed per alfalfa individual. Then, cultivation was performed for 10 days in an incubator of 25° C., followed by hypocotyl length measurement.

On to `O=C1C(Cl)=C(Cl)C(=O)c2ccccc21` [Example 6, 2,3-Dichloro-1,4-naphthoquinone], for which the “Ratio of 4-MU amount vs. positive control” value in test [1] (1 μM) worked out at 0.47; in test [1] (10 μM) it was 5.12; in test [1] (100 μM), 1.86; in test [1] (1000 μM) it was 1.16. This compound gave a Chlorophyll concentration in the test with Arabidopsis thaliana of 6.21 mg/L. The compound also had a Survival rate with maize [2] of 53%. Also, in the test on maize [3], the Above-ground part weight is reported as 0.726 g/plant.
For the compound `O=C1C(Cl)=C(Cl)C(=O)c2c(O)ccc(O)c21` [Example 7, 2,3-Dichloro-5,8-dihydroxy-1,4-naphthoquinone], the “Ratio of 4-MU amount vs. positive control” value in test [1] (1 μM) is listed as 0.80; in test [1] (10 μM) it was 5.91; in test [1] (100 μM), 1.72; in test [1] (1000 μM) it was 0.95. This compound also displayed a Chlorophyll concentration in the test on Arabidopsis thaliana of 6.12 mg/L. In addition, the Hypocotyl length is 18.1 mm in the test with sprouted alfalfa (100 μM) and 14.6 mm with sprouted alfalfa (1000 μM). Further, the Survival rate with maize [2] came out at 88%. Moreover, the Above-ground part weight in the test with maize [3] is given as 0.677 g/plant.
For `O=C1C=CC(=O)c2c(O)ccc(O)c21` [Example 5, 5,8-Dihydroxy-1,4-naphthoquinone], the “Ratio of 4-MU amount vs. positive control” value is 0.48 in test [1] (1 μM), 2.49 in test [1] (10 μM), 1.96 in test [1] (100 μM) and 0.78 in test [1] (1000 μM). In addition, in the test on Arabidopsis thaliana, the Chlorophyll concentration was found to be 6.66 mg/L. For the same compound, the results for the Hypocotyl length in the test with sprouted alfalfa (100 μM) and in the test with sprouted alfalfa (1000 μM) were 14.6 mm and 15.2 mm, respectively. For the same compound, the Survival rate with maize [2] is recorded as 92%. Further, in the test on maize [3], the Above-ground part weight came to 0.653 g/plant.

For the origin of these results see US11638425B2, “Agent for inducing stress tolerance in plants” (Menicon Co. Ltd., priority 2017, dated 2023).
